Results reported in ChEMBL document CHEMBL1142149, “In vitro activities of the lipopeptides palmitoyl (Pal)-Lys-Lys-NH(2) and Pal-Lys-Lys alone and in combination with antimicrobial agents against multiresistant gram-positive cocci” (2007).
≈ marks a conversion by molar mass, not a printed value. Calls of active or inactive are those of the source. No cut-off for these calls is given here.

Experiments:
Enterococcus faecalis [1] = test: Antimicrobial activity against vancomycin-resistant Enterococcus faecalis ATCC 51299; format: functional; conditions: for MIC50 / MIC90: Enterococcus faecalis, ATCC 51299
Staphylococcus aureus [2] = test: Antimicrobial activity against methicillin-susceptible Staphylococcus aureus ATCC 29213; format: functional; conditions: for MIC50 / MIC90: Staphylococcus aureus, ATCC 29213
Streptococcus pyogenes = test: Antimicrobial activity against Streptococcus pyogenes ATCC 19615; format: functional; conditions: for MIC50 / MIC90: Streptococcus pyogenes, ATCC 19615
Staphylococcus aureus [3] = test: Antimicrobial activity against methicillin-resistant Staphylococcus aureus ATCC 43300; format: functional; conditions: for MIC50 / MIC90: Staphylococcus aureus, ATCC 43300
Erythrocyte [4] = test: Effect on hemolytic activity in human RBC above 50 mg/liter; format: functional, cell-based
Prescottella equi = test: Antimicrobial activity against Rhodococcus equi ATCC 6939; format: functional; conditions: for MIC50 / MIC90: Rhodococcus (subgen. Prescottella) equi, ATCC 6939
Enterococcus faecalis [5] = test: Antimicrobial activity against vancomycin-susceptible Enterococcus faecalis ATCC 29212; format: functional; conditions: for MIC50 / MIC90: Enterococcus faecalis, ATCC 29212
Erythrocyte [6] = test: Effect on hemolytic activity in human RBC above 20 mg/liter; format: functional, cell-based

Row | SMILES | MIC50 (Enterococcus faecalis [1]) [µg/mL] | MIC90 (Enterococcus faecalis [1]) [µg/mL] | MBC50 (Staphylococcus aureus [2]) [µg/mL] | MBC90 (Staphylococcus aureus [2]) [µg/mL] | MIC50 (Staphylococcus aureus [2]) [µg/mL] | MIC90 (Staphylococcus aureus [2]) [µg/mL] | MBC50 (Streptococcus pyogenes) [µg/mL] | MBC90 (Streptococcus pyogenes) [µg/mL] | MIC50 (Streptococcus pyogenes) [µg/mL] | MIC90 (Streptococcus pyogenes) [µg/mL] | MIC50 (Staphylococcus aureus [3]) [µg/mL] | MIC90 (Staphylococcus aureus [3]) [µg/mL] | MBC50 (Prescottella equi) [µg/mL] | MBC90 (Prescottella equi) [µg/mL] | MIC50 (Prescottella equi) [µg/mL] | MIC90 (Prescottella equi) [µg/mL] | MBC50 (Enterococcus faecalis [5]) [µg/mL] | MBC90 (Enterococcus faecalis [5]) [µg/mL] | MIC50 (Enterococcus faecalis [5]) [µg/mL] | MIC90 (Enterococcus faecalis [5]) [µg/mL] | other results
1 | CCCCCCCCCCCCCCCC(=O)N[C@@H](CCCCN)C(=O)N[C@@H](CCCCN)C(=O)O | 2 (≈ 3.9 µM) | 4 (≈ 7.8 µM) | 8 (≈ 15.6 µM) | 16 (≈ 31.2 µM) | 4 (≈ 7.8 µM) | 8 (≈ 15.6 µM) | 2 (≈ 3.9 µM) | 4 (≈ 7.8 µM) | 1 (≈ 1.95 µM) | 2 (≈ 3.9 µM) | 4 (≈ 7.8 µM) | 8 (≈ 15.6 µM) | 4 (≈ 7.8 µM) | 16 (≈ 31.2 µM) | 2 (≈ 3.9 µM) | 16 (≈ 31.2 µM) | 4 (≈ 7.8 µM) | 8 (≈ 15.6 µM) | 2 (≈ 3.9 µM) | 4 (≈ 7.8 µM) | MBC90 (Enterococcus faecalis [1]): 16 µg/mL (≈ 31.2 µM); Activity (Erythrocyte [4]): Active
2 | CCCCCCCCCCCCCCCC(=O)N[C@@H](CCCCN)C(=O)N[C@@H](CCCCN)C(N)=O | 2 (≈ 3.91 µM) | 4 (≈ 7.82 µM) | 8 (≈ 15.6 µM) | 16 (≈ 31.3 µM) | 4 (≈ 7.82 µM) | 8 (≈ 15.6 µM) | 2 (≈ 3.91 µM) | 4 (≈ 7.82 µM) | 1 (≈ 1.95 µM) | 2 (≈ 3.91 µM) | 4 (≈ 7.82 µM) | 8 (≈ 15.6 µM) | 8 (≈ 15.6 µM) | 32 (≈ 62.5 µM) | 4 (≈ 7.82 µM) | 16 (≈ 31.3 µM) | 4 (≈ 7.82 µM) | 8 (≈ 15.6 µM) | 2 (≈ 3.91 µM) | 4 (≈ 7.82 µM) | MBC90 (Enterococcus faecalis [1]): 16 µg/mL (≈ 31.3 µM); Activity (Erythrocyte [6]): Active
3 | CC1(C)S[C@@H]2[C@H](NC(=O)[C@H](N)c3ccc(O)cc3)C(=O)N2[C@H]1C(=O)O [AMOXICILLIN] | 16 (≈ 43.8 µM) | 64 (≈ 175 µM) | 8 (≈ 21.9 µM) | 16 (≈ 43.8 µM) | 1 (≈ 2.74 µM) | 4 (≈ 10.9 µM) | 4 (≈ 10.9 µM) | 8 (≈ 21.9 µM) | 0.25 (≈ 0.684 µM) | 2 (≈ 5.47 µM) | 32 (≈ 87.6 µM) | 128 (≈ 350 µM) | 8 (≈ 21.9 µM) | 32 (≈ 87.6 µM) | 1 (≈ 2.74 µM) | 2 (≈ 5.47 µM) | 16 (≈ 43.8 µM) | 64 (≈ 175 µM) | 4 (≈ 10.9 µM) | 16 (≈ 43.8 µM) | MBC50 (Enterococcus faecalis [1]): 64 µg/mL (≈ 175 µM); MBC90 (Enterococcus faecalis [1]): 128 µg/mL (≈ 350 µM); MBC50 (Staphylococcus aureus [3]): 64 µg/mL (≈ 175 µM); MBC90 (Staphylococcus aureus [3]): 256 µg/mL (≈ 701 µM)
4 | C[C@H]1c2cccc(O)c2C(=O)C2=C(O)[C@]3(O)C(=O)C(C(N)=O)=C(O)[C@@H](N(C)C)[C@@H]3[C@@H](O)[C@@H]21.O [DOXYCYCLINE] | 16 | 64 | 8 | 32 | 2 | 8 | 8 | 16 | 2 | 8 | 4 | 16 | 32 | 128 | 1 | 2 | 16 | 64 | 4 | 32 | 
5 | CC[C@H]1OC(=O)[C@H](C)[C@@H](O[C@H]2C[C@@](C)(OC)[C@@H](O)[C@H](C)O2)[C@H](C)[C@@H](O[C@@H]2O[C@H](C)C[C@H](N(C)C)[C@H]2O)[C@](C)(O)C[C@@H](C)C(=O)[C@H](C)[C@@H](O)[C@]1(C)O [ERYTHROMYCIN] | 16 (≈ 21.8 µM) | 64 (≈ 87.2 µM) | 16 (≈ 21.8 µM) | 64 (≈ 87.2 µM) | 4 (≈ 5.45 µM) | 8 (≈ 10.9 µM) | 8 (≈ 10.9 µM) | 32 (≈ 43.6 µM) | 4 (≈ 5.45 µM) | 8 (≈ 10.9 µM) | 4 (≈ 5.45 µM) | 32 (≈ 43.6 µM) | 32 (≈ 43.6 µM) | 64 (≈ 87.2 µM) | 0.5 (≈ 0.681 µM) | 2 (≈ 2.73 µM) | 32 (≈ 43.6 µM) |  | 8 (≈ 10.9 µM) | 32 (≈ 43.6 µM) | MBC50 (Staphylococcus aureus [3]): 32 µg/mL (≈ 43.6 µM)
6 | C[C@@H](O)[C@H]1C(=O)N2C(C(=O)O)=C(SCCNC=N)C[C@H]12 [IMIPENEM ANHYDROUS] | 16 (≈ 53.4 µM) | 64 (≈ 214 µM) | 4 (≈ 13.4 µM) | 8 (≈ 26.7 µM) | 0.5 (≈ 1.67 µM) | 2 (≈ 6.68 µM) | 1 (≈ 3.34 µM) | 4 (≈ 13.4 µM) | 0.5 (≈ 1.67 µM) | 1 (≈ 3.34 µM) | 16 (≈ 53.4 µM) | 128 (≈ 428 µM) | 8 (≈ 26.7 µM) | 16 (≈ 53.4 µM) | 0.25 (≈ 0.835 µM) | 1 (≈ 3.34 µM) | 16 (≈ 53.4 µM) | 64 (≈ 214 µM) | 4 (≈ 13.4 µM) | 16 (≈ 53.4 µM) | MBC50 (Enterococcus faecalis [1]): 64 µg/mL (≈ 214 µM); MBC90 (Enterococcus faecalis [1]): 128 µg/mL (≈ 428 µM); MBC50 (Staphylococcus aureus [3]): 64 µg/mL (≈ 214 µM); MBC90 (Staphylococcus aureus [3]): 256 µg/mL (≈ 855 µM)
7 | CC(=O)NC[C@H]1CN(c2ccc(N3CCOCC3)c(F)c2)C(=O)O1 [LINEZOLID] | 1 (≈ 2.96 µM) | 2 (≈ 5.93 µM) | 1 (≈ 2.96 µM) | 2 (≈ 5.93 µM) | 0.5 (≈ 1.48 µM) | 2 (≈ 5.93 µM) | 1 (≈ 2.96 µM) | 2 (≈ 5.93 µM) | 0.5 (≈ 1.48 µM) | 1 (≈ 2.96 µM) | 0.5 (≈ 1.48 µM) | 1 (≈ 2.96 µM) | 8 (≈ 23.7 µM) | 16 (≈ 47.4 µM) | 0.5 (≈ 1.48 µM) | 1 (≈ 2.96 µM) | 2 (≈ 5.93 µM) | 4 (≈ 11.9 µM) | 1 (≈ 2.96 µM) | 2 (≈ 5.93 µM) | MBC50 (Enterococcus faecalis [1]): 4 µg/mL (≈ 11.9 µM); MBC50 (Staphylococcus aureus [3]): 0.5 µg/mL (≈ 1.48 µM)
8 | CN[C@H](CC(C)C)C(=O)N[C@H]1C(=O)N[C@@H](CC(N)=O)C(=O)N[C@H]2C(=O)N[C@H]3C(=O)N[C@H](C(=O)N[C@H](C(=O)O)c4cc(O)cc(O)c4-c4cc3ccc4O)[C@H](O)c3ccc(c(Cl)c3)Oc3cc2cc(c3O[C@@H]2O[C@H](CO)[C@@H](O)[C@H](O)[C@H]2O[C@H]2C[C@](C)(N)[C@H](O)[C@H](C)O2)Oc2ccc(cc2Cl)[C@H]1O [VANCOMYCIN] | 32 (≈ 22.1 µM) | 64 (≈ 44.2 µM) | 0.5 (≈ 0.345 µM) | 2 (≈ 1.38 µM) | 0.5 (≈ 0.345 µM) | 1 (≈ 0.69 µM) | 1 (≈ 0.69 µM) | 2 (≈ 1.38 µM) | 0.5 (≈ 0.345 µM) | 1 (≈ 0.69 µM) | 0.5 (≈ 0.345 µM) | 2 (≈ 1.38 µM) | 8 (≈ 5.52 µM) | 16 (≈ 11 µM) | 0.5 (≈ 0.345 µM) | 1 (≈ 0.69 µM) | 2 (≈ 1.38 µM) | 4 (≈ 2.76 µM) | 1 (≈ 0.69 µM) | 2 (≈ 1.38 µM) | MBC50 (Enterococcus faecalis [1]): 64 µg/mL (≈ 44.2 µM); MBC90 (Enterococcus faecalis [1]): 256 µg/mL (≈ 177 µM); MBC50 (Staphylococcus aureus [3]): 0.5 µg/mL (≈ 0.345 µM); MBC90 (Staphylococcus aureus [3]): 2 µg/mL (≈ 1.38 µM)
